For one data set, the system named is SKOV3 cells. In words: Apoptosis induction in SKOV3 cells (cell and nuclear morphology after DAPI, caspase 3 activation and PARP cleavage by Western blot). Type of data set: cell-based, human. The procedure:
Exponentially growing cells were exposed to CDDP for 2 hours at 37° C., in serum free medium. After exposure to the drug, the cell layers were rinsed and incubated in complete growth medium.
The siRNA duplexes were transfected according to the recommended procedure by using the Oligofectamine Reagent and Opti-MEM medium (INVITROGEN LIFE TECHNOLOGIES). 30-40% confluent cells were transfected in 25 cm^2 flasks with different concentrations of siXL1, siRNA Mcl-1 or siRNA control and incubated at 37° C., 5% CO2 for 4 hours. Next, 20% fetal bovin serum was added to reach a final concentration of 10% foetal bovin serum in the 25 cm^2 flask.
Cells were rinsed with ice cold PBS and lysed in 150 mM NaCl, 50 mM Tris-HCl pH 8, 1% Triton X100, 4 mM PMSF, 2 mM Aprotinin, 5 mM EDTA, 10 mM NaF, 10 mM NaPPi, 1 mM Na3VO4 for 30 min on ice. Lysates were clarified by centrifugation at 10000 g for 10 min at 4° C. and protein concentrations were determined using the Bradford assay (BIO-RAD). Equal amounts of total cellular protein (20 μg) were resolved in a Bis-tris-HCL buffered (pH 6.4) 4-12% polyacrylamide gel (NuPAGE® Novex® 4-12% Bis-tris gel, INVITROGEN) for 35 min at 200V and electrophoretically transferred on a PVDF membrane (MILLIPORE) for 75 min at 30V. The membrane was blocked for 1 hour at room temperature in T-TBS (132 mM NaCl, 20 mM Tris-HCl pH 7.6, 0.05% Tween 20) supplemented with 5% non-fat dry milk. The membrane was incubated for 1 hour at room temperature in T-TBS-milk with the following primary antibodies: anti-Bcl-XL/S (1:500, S18 SANTA-CRUZ BIOTECHNOLOGY), anti-PARP (1:1000, CELL-SIGNALING TECHNOLOGY), anti-caspase-3 (1:1000, BD BIOSCIENCES PHARMINGEN) anti-cleaved caspase-3 (1:1000, CELL-SIGNALING TECHNOLOGY), anti-alpha-tubulin (1:3000, SIGMA) and anti-Mcl-1 (1:750, S19 SANTA-CRUZ BIOTECHNOLOGY). After three washes with T-TBS, the membrane was incubated for 1 h at room temperature in T-TBS-milk with the adequate peroxidase conjugated secondary antibody (Anti-rabbit IgG, CELL-SIGNALING TECHNOLOGY, and anti-mouse IgG, AMERSHAM). After 3 washes with T-TBS and one with TBS, the immunoreactivity was detected by enhanced chemiluminescence (ECL kit, AMERSHAM).
After treatment, detached cells were collected separately and adherent cells were dissociated by trypsin/EDTA. Adherent and detached cells were then pooled and centrifuged at 1500×g for 5 min before being fixed in 70% ethanol. The cells were then collected on a polylysine-coated glass slide by cytocentrifugation, before a 30 min room temperature incubation in a 1 μg/ml DAPI aqueous solution (BOEHRINGER MANNHEIM). Slides were thereafter extensively washed in distilled water and mounted in Mowiol (CALBIO-CHEM).

Data set [1] has as its system subcutaneous SKOV3 human ovarian carcinoma. In words: Growth of subcutaneous SKOV3 tumours in nude mice. It is filed as in vivo. The conditions noted are these: 25 μg/kg intraperitoneally once a week, FIG. 16. On the procedure:
PEI/siRNA complexes were prepared in 5% glucose solution with a ratio of L-PEI nitrogen to siRNA phosphate of 5:1. Various amounts of siRNA (125, 625 or 2500 ng) and L-PEI were diluted separately, and PEI was then added to the siRNA. The solution was quickly homogenized and left for 15 min at room temperature. It was injected intraperitoneally in mice as a 0.5 ml 5% glucose solution.
SKOV3 cells (2×10^7/500 μL) were inoculated subcutaneously into the right flank of nude mice, and establishment of palpable tumours was determined. The tumour volume was calculated as v=L×l^2×p/6 where L and l represent the larger and the smaller tumour diameter measured twice week with digital caliper. When tumours reached an average volume of ˜100 mm^3 (on day 10), three experimental groups (three mice per group) were tested as follow: (a) untreated, (b) siXL1 naked (25 μg/kg), and (c) siXL1-PEI (25 μg/kg). The samples were diluted in 0.5 ml 0.9% NaCl solution (siRNA naked) or in 0.5 ml 5% glucose solution (siRNA-PEI) and injected intraperitoneally. This process was repeated once a week.

Turning to “siXL1: double-stranded siRNA blocking Bcl-XL expression; sense 5′-auuggugagucggaucgcatt-3′ (SEQ ID NO: 5), anti-sense 5′-ugcgauccgacucaccaautt-3′ (SEQ ID NO: 6) (sense AUUGGUGAGUCGGAUCGCATT; antisense UGCGAUCCGACUCACCAAUTT; chemistry not given here)”, in the data set with SKOV3 cells (24 h, combination with 20 μg/ml cisplatin), the “caspase 3 activation and PARP cleavage after 24 h exposure to cisplatin” value is “detectable”. For the same substance, the “apoptosis induction (cellular and nuclear morphology, caspase 3 cleavage)” value in the data set on SKOV3 cells (72 h after transfection, FIG. 5) is “moderate apoptosis”. Further, the “apoptosis / cell death (nuclear fragmentation and condensation, morphology, pre-G1 peak)” value in the data set on SKOV3 cells (alone 150 nM or in combination 75 nM each, FIGS. 13 and 14) is recorded as “moderate apoptosis”. Moreover, the “effect on subcutaneous tumor growth” value in data set [1] is given as “almost no effect”.

Values taken from US8193333B2, “Cancer therapy using Bcl-Xl-specific siNA” (Centre Regional de Lutte Contre le Cancer-Centre Francois …, priority 2006, dated 2012).
